Measurements: patent publication US7767676B2, “Dihydro-1,3,5-triazine amine derivatives and their therapeutic uses” (Merck Sante, priority 2000, dated 2010)
Counter-ions that a name gives are not always drawn. Like-named read-outs stand apart in the source and are kept apart here.

Tests used:
[1] = tested on: non-insulin-dependent diabetes induced in rats by Streptozotocin; assay: Antidiabetic activity in the Nostz rat (non-insulin-dependent diabetes induced by neonatal streptozotocin), glycaemia after oral treatment; type: in vivo; settings: diabetic rats, blood 2 h after last administration; for change in vivo at 20 mg/kg: 20 mg/kg/D oral; for change in vivo at 200 mg/kg: 200 mg/kg/D oral
Method: Study of the Antidiabetic Activity in the Nostz Rat
The antidiabetic activity of the compounds of formula (I) administered orally was determined on an experimental model of non-insulin-dependent diabetes induced in rats by Streptozotocin.
The non-insulin-dependent diabetes model is obtained in rats by neonatal injection (on the day of birth) of streptozotocin.
The diabetic rats used were 8 weeks old. The animals were kept, from the day of their birth to the day of the experiment, in an animal house at a controlled temperature of 21 to 22° C. and subjected to a fixed cycle of light (from 7 am to 7 pm) and darkness (from 7 pm to 7 am). Their diet consisted of a maintenance diet, water and food were provided “ab libitum”, with the exception of the 2 hours of fasting preceding the tests when the food is withdrawn (postabsorptive state).
The rats were treated by the oral route for one (D1) or four (D4) days with the product to be tested. Two hours after the last administration of the product and 30 minutes after anaesthetizing the animals with sodium pentobarbital (Nembutal a), 300 μl of blood sample are collected from the end of the tail.
By way of example, results obtained are assembled in Table III.

[2] = 24 h, 1 day of treatment, read-out: percentage variation of glycaemia at D1 relative to D0
[3] = 96 h, 4 days of treatment, read-out: percentage variation of glycaemia at D4 relative to D0

SMILES	melting point	change in vivo at 20 mg/kg [1, 2]	change in vivo at 200 mg/kg [1, 2]	change in vivo at 20 mg/kg [1, 3]	change in vivo at 200 mg/kg [1, 3]
CN(C)C1=NC(C2CC=CCC2)N=C(N)N1 (stereo not shown) (as salt: toluenesulphonate) [Compound 45]	217 to 219 °C				
CN(C)C1=NC(C2CCCCC2)N=C(N)N1 (stereo not shown) (as salt: toluenesulphonate) [Compound 34]	201 to 203 °C				
CN(C)C1=NC(Cc2ccccc2)N=C(N)N1 (stereo not shown) (as salt: toluenesulphonate) [Compound 37]	159 to 161 °C				
CC1N=C(N(C)C)NC(N2CCCC2)=N1 (stereo not shown) (as salt: salt) [Compound 21]	> 140 °C				
CC(C)CCCC(C)[C@H]1CCC2C3CCC4CC5(CC[C@]4(C)C3CC[C@@]21C)N=C(N)NC(N(C)C)=N5 (stereo partly shown) (as salt: HCl) [Compound 19]	> 260 °C				
CN(C)C1=NC2(CCC(O)CC2)N=C(N)N1 (stereo not shown) (as salt: HCl) [Compound 28]	> 250 °C				
CC(CCC(=O)O)[C@H]1CCC2C3C(C[C@H](O)[C@@]21C)[C@@]1(C)CCC2(CC1C[C@H]3O)N=C(N)NC(N(C)C)=N2 (stereo partly shown) (as salt: HCl) [Compound 25]	> 260 °C				
COc1ccc(C2N=C(N)NC(N(C)C)=N2)cc1 (stereo not shown) (as salt: HCl) [Compound 11]	221 to 223 °C				
C=CCNC1=NC(C)N=C(N(C)C)N1 (stereo not shown) [Compound 26]		-6%	-14%	-11%	-9%
CN(C)C1=NC(C)(C)N=C(N)N1 [Compound 3]		-10%	-18%	-8%	-22%
CC1N=C(N(C)C)NC(N(C)C)=N1 [Compound 2, 2,4-bisdimethylamino-3,6-dihydro-6-methyl-1,3,5-triazine hydrochloride]		-11%	-12%	-10%	-12%
CCC1N=C(N)NC(N(C)C)=N1 (stereo not shown) (as salt: HCl) [Compound 1, 2-amino-3,6-dihydro-4-dimethylamino-6-ethyl-1,3,5-triazine hydrochloride]	218 to 220 °C				
CN(C)C1=NC(C)(C)N=C(N2CCCC2)N1 (as salt: HCl) [Compound 17]	> 260 °C				
CN(C)C1=NC(c2ccccc2)N=C(N)N1 (stereo not shown) (as salt: HCl) [Compound 10]	239 to 241 °C				
CN1CCC2(CC1)N=C(N)NC(N(C)C)=N2 [Compound 39]		-6%	-4%	-6%	-7%
CN(C)C1=NC2(CCCC2)N=C(N)N1 (as salt: HCl) [Compound 31]	207 to 209 °C				
CN1CCC2(CC1)N=C(N)NC(N(C)C)=N2 (as salt: HCl) [Compound 39]	> 260 °C				
CN(C)C1=NC2(CCCCC2)N=C(N)N1 [Compound 4]		0%	-20%	-1%	-10%
CC(C)CCCC(C)[C@H]1CCC2C3CCC4CC5(CC[C@]4(C)C3CC[C@@]21C)N=C(N)NC(N(C)C)=N5 (stereo partly shown) [Compound 19]		-10%	-4%	-6%	-14%
CN(C)C1=NC(C)(C)N=C(N(C)C)N1 (as salt: HCl) [Compound 15]	250 to 252 °C				
C=CCNC1=NC(C)N=C(N(C)C)N1 (stereo not shown) (as salt: HCl) [Compound 26]	91 to 92 °C				
CN(C)C1=NC(C)(C)N=C(N(C)C)N1 [Compound 15]		-8%	-4%	-9%	-5%
CCC1(CC)N=C(N)NC(N(C)C)=N1 (as salt: salt) [Compound 30]	140 to 144 °C				
CN(C)C1=NC2(CCCC2)N=C(N)N1 [Compound 31]		-5%	-3%	-11%	-15%
CCNC1=NC2(CCCCC2)N=C(N(C)C)N1 (as salt: HCl) [Compound 23]	248 to 250 °C				
CN(C)C1=NC2(CCC(OCc3ccccc3)CC2)N=C(N)N1 (stereo not shown) (as salt: HCl) [Compound 27]	> 260 °C				

SMILES	melting point	change in vivo at 20 mg/kg [1, 2]	change in vivo at 200 mg/kg [1, 2]	change in vivo at 20 mg/kg [1, 3]	change in vivo at 200 mg/kg [1, 3]
CN(C)C1=NC(C)(C)N=C(N2CCCC2)N1 [Compound 17]		-12%	-8%	-8%	-14%
CC(C)NC1=NC(C)(C)N=C(N(C)C)N1 (as salt: HCl) [Compound 9]	149 to 151 °C				
CN(C)C1=NC(COc2ccccc2)N=C(N)N1 (stereo not shown) (as salt: toluenesulphonate) [Compound 41]	194 to 196 °C				
CN(C)C1=NC2(CCC(O)CC2)N=C(N)N1 (stereo not shown) [Compound 28]		-4%	-4%	-1%	-13%
CCCC1N=C(N)NC(N(C)C)=N1 (stereo not shown) [Compound 32]		2%	-22%	0%	-18%
CC(CCC(=O)O)[C@H]1CCC2C3C(C[C@H](O)[C@@]21C)[C@@]1(C)CCC2(CC1C[C@H]3O)N=C(N)NC(N(C)C)=N2 (stereo partly shown) [Compound 25]		-4%	-7%	-11%	-6%
CN(C)C1=NC(C(C)(C)C)N=C(N)N1 (stereo not shown) (as salt: HCl) [Compound 42]	> 260 °C				
CN(C)C1=NC2(CCCCC2)N=C(N)N1 (as salt: HCl) [Compound 4]	243 to 245 °C				
CN(C)C1=NC(C)(CCCO)N=C(N)N1 (stereo not shown) [Compound 6]	138 to 140 °C				
CN(C)C1=NC(c2ccc(O)cc2)N=C(N)N1 (stereo not shown) (as salt: HCl) [Compound 12]	251 to 253 °C				
CNC1=NC2(CCCCC2)N=C(N(C)C)N1 [Compound 22]		-23%	-13%	-16%	0%
CNC1=NC2(CCCCC2)N=C(N(C)C)N1 (as salt: HCl) [Compound 22]	> 260 °C				
CN(C)C1=NC2(CCOCC2)N=C(N)N1 (as salt: HCl) [Compound 38]	> 260 °C				
CN(C)C1=NC(C(F)(F)F)N=C(N)N1 (stereo not shown) (as salt: toluenesulphonate) [Compound 36]	251 to 253 °C				
CC1N=C(N(C)C)NC(N2CCCC2)=N1 (stereo not shown) [Compound 21]		-7%	-21%	-2%	-24%
CC(C)C1N=C(N)NC(N(C)C)=N1 (stereo not shown) [Compound 44]		-7%	-22%	-6%	-25%
NC1=NC2(CCCCC2)N=C(NCCc2ccccc2)N1 (as salt: salt) [Compound 20]	170 to 180 °C				
CN(C)C1=NC(c2ccco2)N=C(N)N1 (stereo not shown) (as salt: HCl) [Compound 40]	225 to 227 °C				
C=CCNC1=NC(C)(C)N=C(N(C)C)N1 (as salt: HCl) [Compound 8]	124 to 126 °C				
CN(C)C1=NC(C)(CCCO)N=C(N)N1 (stereo not shown) [Compound 7]		-8%	-10%	-11%	-16%
CC(CCC(=O)O)[C@H]1CCC2C3CCC4CC5(CC[C@]4(C)C3CC[C@@]21C)N=C(N)NC(N(C)C)=N5 (stereo partly shown) (as salt: HCl)	> 260 °C				
CCNC1=NC(C)(C)N=C(N(C)C)N1 (as salt: fumarate) [Compound 14]	172 to 174 °C				
CN(C)C1=NC(C(C)(C)C)N=C(N)N1 (stereo not shown) [Compound 42]		-5%	-26%	-4%	-17%
CN(C)C1=NC2(CCC(OCc3ccccc3)CC2)N=C(N)N1 (stereo not shown) [Compound 27]		-14%	-12%	-9%	-13%
CC1N=C(N(C)C)NC(N(C)C)=N1 (as salt: HCl) [Compound 2, 2,4-bisdimethylamino-3,6-dihydro-6-methyl-1,3,5-triazine hydrochloride]	200 to 202 °C				
CN(C)C1=NC(C)(CCCO)N=C(N)N1 (stereo not shown) (as salt: HCl) [Compound 7]	150 to 152 °C				
